Laboratory results from ChEMBL document CHEMBL3507680, “University of Dundee, Gates Library screen for HepG2 cell viability”.

Test: Human HepG2 cell viability assay in 384 well format
Assay type: toxicity, cell-based
Parameters: dose 125 nL, time 70.5 hour; concentration not given beside the values
Details: HepG2 cells, read-out: Inhibition

Structure (SMILES) | cytotoxicity at 70.5 h
CC(C)N(C(=O)CN(C)C1CCc2ccccc21)C(C)C (stereo not drawn) | -0.805%
Cc1cnn(CCNCc2csc(-c3ccsc3)n2)c1 | -6.72%
Cc1cnc(C(=O)NC(CN2CCCC2=O)c2ccccc2)cn1 (stereo not drawn) | -1.21%
CC(C)c1ccc(OCCC(=O)N2CCC(C(N)=O)CC2)cc1 | -4.09%
COc1c(CNCc2ccc(N(C)C)nc2)c(C)nn1C | 24.3%
Cc1nc(-c2ccsc2)ccc1C(=O)NCC(C)N1CCOCC1 (stereo not drawn) | -4.37%
O=C(CN1CCC(c2ccccc2)C1)NC(=O)NCC(F)(F)F (stereo not drawn) | 21.4%
CC(C)c1ccc(OCCC(=O)N2CCCN(C(N)=O)CC2)cc1 | -1.87%
CCNc1cc2c(nn1)CCN(C(=O)c1ccsc1)C2 | -3.61%
CCc1nnc2n1CCN(CC(=O)Nc1cc(C)nn1C)C2 | -4.31%
Cc1nn(C)c(C)c1CC(=O)N1CCCN(c2cccnn2)CC1 | 5.97%
Cc1noc(Cl)c1CC(=O)N1CCC(Nc2cccnn2)CC1 | -1.04%
CCNc1cc2c(nn1)CCN(C(=O)c1ccc(-n3cnnc3)cc1)C2 | -0.933%
O=C(CSc1ccc(F)cc1F)NS(=O)(=O)c1ccc2c(c1)OCCO2 | -3.46%
CCNc1cc2c(nn1)CCN(C(=O)c1ccnc(C)n1)C2 | -2.85%
Cc1nc(C)n(CC2CCCN2Cc2cc(-c3cccs3)on2)n1 (stereo not drawn) | -13.7%
Cc1csc(N2CCCN(C(=O)C3(C#N)CCCC3)CC2)n1 | -8.33%
Cc1cc(C)n(CC2CCCN2C(=O)CCc2ccco2)n1 (stereo not drawn) | -14.5%
CN(C)c1ccc(C(=O)N2CCCC(n3cccn3)C2)cn1 (stereo not drawn) | 15%
Cc1nc(C)n(CC2CCCCN2Cc2nc(-c3ccoc3)no2)n1 (stereo not drawn) | -11.8%
Cc1nc(CCNCc2c(C)nn(C)c2N2CCOCC2)cs1 | -0.903%
Cc1cc(CN2CCN(C(=O)NC(C)c3cccnc3)CC2)no1 (stereo not drawn) | -8.62%
CC(C(=O)NCc1ccnc(N(C)C)c1)n1cccn1 (stereo not drawn) | -3.71%
CN1CCN(c2cc(CNC(=O)Cn3cccn3)ccn2)CC1 | 13.6%

Structure (SMILES) | cytotoxicity at 70.5 h
O=C(c1ccc(N2CCOCC2)nc1)N1CCCC(n2cccn2)C1 (stereo not drawn) | -13.9%
CCOc1ccccc1C(CC(=O)Nc1ccccn1)NC(C)=O (stereo not drawn) | -5.35%
COC(=O)c1cc(C(=O)N2CCN(C)CC2)n(-c2ccccc2)n1 | -6.12%
Cc1nc(C)n(CC2CCCN2Cc2nc(-c3ccco3)no2)n1 (stereo not drawn) | -4.04%
COC(=O)c1cc(C(=O)N2CCOC(C)(C)C2)n(-c2ccccc2)n1 | -10.1%
Cc1cc(C)n(CC2CCCN2C(=O)CCc2nccs2)n1 (stereo not drawn) | -7.22%
Cc1cnn(CCNCc2csc(-c3ccc(C)o3)n2)c1 | 19.9%
COCCCN1CCC(C(=O)c2cc(F)ccc2F)CC1 | -0.37%
Cc1cnn(CCNCc2nc(-c3ccccn3)no2)c1 | -6.05%
CC(=O)N1CCCN(C(=O)NCc2cccnc2OC(C)C)CC1 | -5.61%
COC(=O)CN1CCC(C(=O)c2cc(F)ccc2F)CC1 | -3.39%
COCCN1CCC(C(=O)c2cc(F)ccc2F)CC1 | -2.7%
CCc1nc(CNCCn2cc(C)cn2)no1 | -5.71%
CCc1nc(C2CCCN2C(=O)c2cc3c(s2)CCC3)no1 (stereo not drawn) | -2.7%
NC(=O)C1CCN(C(=O)NCc2cccnc2OC2CCCC2)C1 (stereo not drawn) | -5.81%
CCOc1ccccc1OC1CCN(C(=O)c2c[nH]nn2)CC1 | -0.281%
CCOc1ccccc1OC1CCN(C(=O)c2cnns2)CC1 | -3.73%
Cc1ncccc1CNC1CCCN(Cc2noc(C3CC3)n2)C1 (stereo not drawn) | 0.441%
CCc1nc(C2CCCN2CC(=O)N2CCCc3ccccc32)no1 (stereo not drawn) | 22%
O=C(N1CCCCC1)N1CCN(CC(O)c2ccccc2)CC1 (stereo not drawn) | -3.61%
O=C(Cc1ccc2c(c1)OCCO2)N1CCN(c2cnccn2)CC1 | -1.49%
CC(=O)N1CCN(C(=O)NCc2cccnc2OC(C)C)CC1 | 26.4%
CCOc1ccccc1OC1CCN(C(=O)c2csnn2)CC1 | -5.03%
O=C(Cc1ccc2c(c1)CCO2)N1CCN(c2ccccn2)CC1 | 2.5%

Structure (SMILES) | cytotoxicity at 70.5 h
O=C(Cc1ccc2c(c1)CCO2)N1CCN(c2ccncc2)CC1 | 6.77%
Cc1cc(C)c(CNC(=O)NCc2ccc(F)cc2)c(=O)[nH]1 | -3.16%
O=C(Cc1ccccc1)N1CCN(CC(O)c2ccc(F)cc2)CC1 (stereo not drawn) | -4.03%
O=C(N1CCOCC1)N1CCN(CC(O)c2ccc(F)cc2)CC1 (stereo not drawn) | 3.33%
CCn1ccnc1CN1CCN(CCOc2ccc(C#N)cc2)CC1 | -4.7%
NC(=O)COc1cccc(CN2CCc3cncnc3C2)c1 | -0.423%
CC(C)c1ncc2c(n1)CN(Cc1cccc(C(N)=O)c1)CC2 | -4.48%
CC(C)Oc1ncccc1CNC(=O)N1CCC(n2cccc2)CC1 | -0.649%
Cc1nc(C2CCCN2C(=O)c2cc3c(s2)CCC3)no1 (stereo not drawn) | -6.34%
CCN(CC)Cc1ccc(C(=O)N2CCN(CC(C)O)CC2)o1 (stereo not drawn) | -5.77%
CC(C)c1cc(NC(=O)c2ccc(NC3CC3)nc2)[nH]n1 | -5.73%
CC1CN(C)CCN1C(=O)c1ccn(-c2cccc(Cl)c2)n1 (stereo not drawn) | -13.2%
CC(C)c1nc(C2CCCN2Cc2ccno2)no1 (stereo not drawn) | -12%
CC(C)c1nc(C2CCCN2Cc2ccccc2C#N)no1 (stereo not drawn) | 5.38%
Cc1nc(CN(C)C2CCCN(c3cccnn3)C2)no1 (stereo not drawn) | 17.1%
CCn1cc(CN2CCCN(C(=O)CCc3ccncc3)CC2)cn1 | 25.1%
COC(=O)CCc1c(C)nc2cc(O)nn2c1C | -2.64%
CC(C)C(Sc1nnnn1C1CC1)C(=O)NCc1cccnc1 (stereo not drawn) | -7.01%
CCNC(=O)CCc1c(C)nc2cc(O)nn2c1C | -5%
Cc1cc(CNc2ccc(C(=O)N3CCCC(C)C3)cc2C)no1 (stereo not drawn) | -16.5%
COc1ccc(NC(=O)CCc2c(C)nc3cc(O)nn3c2C)cn1 | -2.2%
CCn1cnnc1C1CCN(C(=O)c2cccc3c2ccn3C)CC1 | 6.06%
CC(=O)N(C)c1nc(CN2CCCCC2Cn2cncn2)cs1 (stereo not drawn) | -6.38%
CCNC(=O)N(C)C(c1cccc(F)c1)c1ccccn1 (stereo not drawn) | -14%

Structure (SMILES) | cytotoxicity at 70.5 h
Cc1cnn(C2CN(Cc3nc(-c4ccco4)no3)C2)c1 | -10.1%
Cc1oc(C(=O)O)cc1S(=O)(=O)Nc1ccc(Cl)c(F)c1 | -6.62%
CCOc1ccc(Cl)c(C(=O)N2CCN(CCO)CC2)n1 | -6.15%
CCn1cnnc1CNC(=O)N1CCN(c2nc(C)c(C)s2)CC1 | -3.66%
CCC(C)(C)NC(=O)CN(C)C(c1cccc(F)c1)c1ccccn1 (stereo not drawn) | 0.639%
Cc1cccc(-c2noc(CN3CC(n4cc(C)cn4)C3)n2)c1 | -5.31%
CC(C)C(Sc1nnc(C2CC2)n1C1CC1)C(=O)NCc1cccnc1 (stereo not drawn) | -8.64%
CN(Cc1ccsc1)C(=O)c1cccc(S(=O)(=O)NC(C)(C)C)c1 | -2.95%
COc1ccc(-c2nc(CN3CCN(CCO)CC3)co2)cc1 | 30.3%
C=C(C)COCCNC(=O)C1CCCN1C(C)=O (stereo not drawn) | -13.6%
CC(C)OCCCNC(=O)CS(=O)(=O)Cc1ccc(Cl)c(Cl)c1 | -9.73%
CC(C)(C)c1noc(CN2CCN(C(=O)c3cccs3)CC2)n1 | -12.1%
COc1ncccc1NC(=O)N(Cc1ccc(C)o1)C1CC1 | -9.49%
CCN(C(=O)Nc1cccnc1OC)C1CC1 | -9.27%
Cc1cccnc1NC(=O)NC(C)Cn1cccn1 (stereo not drawn) | -7.34%
CCN(Cc1ccc2c(c1)OCCO2)S(=O)(=O)N(C)C(C)C | -7.62%
CCn1c(C(=O)N2CCN(C(=O)NC(C)C)CC2)cc2ccccc21 | -9.47%
COc1c(C)cnc(CN2CCC(C(=O)N(C)C)CC2)c1C | -23.8%
Fc1ccc(-c2nnc(CN3CCCC3Cn3cncn3)o2)cc1 (stereo not drawn) | -8.54%
CCn1c(C(=O)N2CCN(CC(C)O)CC2)cc2ccccc21 (stereo not drawn) | 21.6%
Fc1ccc(-c2nnc(CN3CCOC(Cn4cncn4)C3)o2)cc1 (stereo not drawn) | -28.7%
Cc1cc(C(=O)N2CCCCC2c2nc(C)cs2)[nH]n1 (stereo not drawn) | -7.87%
COc1ccc(C(=O)N2CCCCC2c2nc(C)cs2)nn1 (stereo not drawn) | 23.8%
c1cnnc(NCC2CN(CCN3CCCCC3)CCO2)c1 (stereo not drawn) | -11.2%

Structure (SMILES) | cytotoxicity at 70.5 h
O=C(CS(=O)(=O)CC1CCCCC1)NC1CCCCNC1=O (stereo not drawn) | -14.4%
OCCN1CCN(Cc2coc(-c3ccc(Cl)cc3)n2)CC1 | -11.8%
CC(C(=O)NCCCN1CCCCCC1=O)n1cncn1 (stereo not drawn) | -0.359%
CC(=O)NCCc1ccc(C(=O)N2CCCC2c2cnn(C)c2)cc1 (stereo not drawn) | 15.1%
Cn1cnnc1C1CCCN(C(=O)NCc2cc[nH]n2)C1 (stereo not drawn) | 18.7%
CN(Cc1cscn1)C1CCCN(Cc2noc(C3CC3)n2)C1 (stereo not drawn) | 22.4%
O=C(NCCn1ccnc1)c1cccc(F)c1 | -11.3%
Cc1nnc(NC(=O)NCc2ccc(N3CCN(C)CC3)nc2)s1 | -24.8%
Cc1cccc(N2CCN(CCNC(=O)C(C)n3cncn3)CC2)c1 (stereo not drawn) | -6.98%
Cc1nnc(NC(=O)NCc2cc(F)cc(F)c2)s1 | -14.2%
Cc1ccc(C)n1-c1ccc(C(=O)NCCNc2ncccn2)cc1 | -7.02%
O=C(Cc1ccc2c(c1)CCC2)NCCNc1ncccn1 | 10.9%
COc1ccc(C)cc1CN(C)Cc1nc2c(cnn2C)c(=O)[nH]1 | -7.21%
Cc1cc(C)c(CNC(=O)N(C)Cc2sccc2C)c(=O)[nH]1 | -10.7%
CCOc1cccc(C(=O)N2CCN(c3nccc(OC)n3)CC2)c1 | 23.4%
CCOc1ccnc(N2CCN(C(=O)C(C)(C)C#N)CC2)n1 | -12.5%
CCN(Cc1ccccc1)C(=O)CN1CCCC(Cn2cncn2)C1 (stereo not drawn) | -4.31%
CC(C)c1nnc2n1CCN(CC(=O)Nc1sccc1C#N)C2 | 13.5%
Cc1nc(CN(C)C2CCN(Cc3nc4ccccc4s3)C2)no1 (stereo not drawn) | -8.96%
CCCOCC(=O)NS(=O)(=O)c1ccc2c(c1)OCCCO2 | 19.6%
CC(C)c1nn(C)c(Cl)c1CNCc1ccc(N(C)C)nc1 | -2.07%
COc1cccc(CNC(C)Cn2cccn2)c1OC (stereo not drawn) | 2.73%
